Measured values published in ChEMBL document CHEMBL3046121, “Design and synthesis of new N-substituted amino methyl-[1,2,3] triazolyl moieties of fluoroquinolones as antibacterial agents” (2013).
≈ marks a conversion by molar mass, not a printed value.

What was measured:
Type in all cases: functional
Enterococcus faecalis = assay: Antibacterial activity against Vancomycin-resistant Enterococcus faecalis ATCC 700802 assessed as growth inhibition after 24 hr by two-fold serial dilution method; settings: ATCC 700802, 24 h
Moraxella catarrhalis = assay: Antibacterial activity against Moraxella catarrhalis ATCC 25238 assessed as growth inhibition after 24 hr by two-fold serial dilution method; settings: ATCC 25238, 24 h
Klebsiella pneumoniae = assay: Antibacterial activity against clinical Klebsiella pneumoniae AB 356 assessed as growth inhibition after 24 hr by two-fold serial dilution method; settings: AB 356, 24 h
Acinetobacter baumannii = assay: Antibacterial activity against Acinetobacter baumannii BAA 747 assessed as growth inhibition after 24 hr by two-fold serial dilution method; settings: BAA 747, 24 h
Staphylococcus aureus [1] = assay: Antibacterial activity against methicillin-sensitive Staphylococcus aureus ATCC 29213 assessed as growth inhibition after 24 hr by two-fold serial dilution method; settings: ATCC 29213, 24 h
Staphylococcus aureus [2] = assay: Antibacterial activity against Methicillin-resistant Staphylococcus aureus ATCC 33591 assessed as growth inhibition after 24 hr by two-fold serial dilution method; settings: ATCC 33591, 24 h

Structure (SMILES)	MIC (Enterococcus faecalis) [µg/mL]	MIC (Moraxella catarrhalis) [µg/mL]	MIC (Klebsiella pneumoniae) [µg/mL]	MIC (Acinetobacter baumannii) [µg/mL]	MIC (Staphylococcus aureus [1]) [µg/mL]	MIC (Staphylococcus aureus [2]) [µg/mL]
O=C(O)c1cn(C2CC2)c2cc(-n3cc(CNC4CCCCCC4)nn3)c(F)cc2c1=O	32 (≈ 72.8 µM)	8 (≈ 18.2 µM)	16 (≈ 36.4 µM)	16 (≈ 36.4 µM)	32 (≈ 72.8 µM)	32 (≈ 72.8 µM)
O=C(O)c1cn(C2CC2)c2cc(-n3cc(CNc4ccccc4)nn3)c(F)cc2c1=O	2 (≈ 4.77 µM)	0.125 (≈ 0.298 µM)	1 (≈ 2.38 µM)	1 (≈ 2.38 µM)	0.25 (≈ 0.596 µM)	0.5 (≈ 1.19 µM)
O=C(O)c1cn(C2CC2)c2cc(-n3cc(CNc4ccc(F)cc4)nn3)c(F)cc2c1=O	4 (≈ 9.14 µM)	0.25 (≈ 0.572 µM)	2 (≈ 4.57 µM)	2 (≈ 4.57 µM)	0.25 (≈ 0.572 µM)	1 (≈ 2.29 µM)
O=C(O)c1cn(C2CC2)c2cc(-n3cc(CNc4ccc(Cl)cc4)nn3)c(F)cc2c1=O	1 (≈ 2.2 µM)	0.125 (≈ 0.275 µM)	1 (≈ 2.2 µM)	0.5 (≈ 1.1 µM)	0.25 (≈ 0.551 µM)	0.25 (≈ 0.551 µM)
COc1ccc(NCc2cn(-c3cc4c(cc3F)c(=O)c(C(=O)O)cn4C3CC3)nn2)cc1	2 (≈ 4.45 µM)	0.5 (≈ 1.11 µM)	4 (≈ 8.9 µM)	8 (≈ 17.8 µM)	0.5 (≈ 1.11 µM)	0.5 (≈ 1.11 µM)
Cc1ccc(NCc2cn(-c3cc4c(cc3F)c(=O)c(C(=O)O)cn4C3CC3)nn2)cc1	2 (≈ 4.61 µM)	0.125 (≈ 0.288 µM)	4 (≈ 9.23 µM)	8 (≈ 18.5 µM)	0.5 (≈ 1.15 µM)	0.5 (≈ 1.15 µM)
O=C(O)c1cn(C2CC2)c2cc(-n3cc(CNCc4ccccc4)nn3)c(F)cc2c1=O	4 (≈ 9.23 µM)	1 (≈ 2.31 µM)	1 (≈ 2.31 µM)	8 (≈ 18.5 µM)	2 (≈ 4.61 µM)	2 (≈ 4.61 µM)
O=C(O)c1cn(C2CC2)c2cc(-n3cc(CNCc4ccc(F)cc4)nn3)c(F)cc2c1=O	4 (≈ 8.86 µM)	1 (≈ 2.22 µM)	2 (≈ 4.43 µM)	8 (≈ 17.7 µM)	2 (≈ 4.43 µM)	2 (≈ 4.43 µM)
O=C(O)c1cn(C2CC2)c2cc(-n3cc(Cn4ccnc4)nn3)c(F)cc2c1=O	32 (≈ 81.1 µM)	8 (≈ 20.3 µM)	32 (≈ 81.1 µM)	32 (≈ 81.1 µM)	32 (≈ 81.1 µM)	32 (≈ 81.1 µM)
CN(C)Cc1cn(-c2cc3c(cc2F)c(=O)c(C(=O)O)cn3C2CC2)nn1	16 (≈ 43.1 µM)	1 (≈ 2.69 µM)	2 (≈ 5.39 µM)	8 (≈ 21.5 µM)	4 (≈ 10.8 µM)	8 (≈ 21.5 µM)
CCN(CC)Cc1cn(-c2cc3c(cc2F)c(=O)c(C(=O)O)cn3C2CC2)nn1	32 (≈ 80.1 µM)	16 (≈ 40.1 µM)	16 (≈ 40.1 µM)	16 (≈ 40.1 µM)	8 (≈ 20 µM)	32 (≈ 80.1 µM)
CCCN(CCC)Cc1cn(-c2cc3c(cc2F)c(=O)c(C(=O)O)cn3C2CC2)nn1	32 (≈ 74.9 µM)	2 (≈ 4.68 µM)	8 (≈ 18.7 µM)	16 (≈ 37.4 µM)	8 (≈ 18.7 µM)	32 (≈ 74.9 µM)
O=C(O)c1cn(C2CC2)c2cc(-n3cc(CN4CCCC4)nn3)c(F)cc2c1=O	16 (≈ 40.3 µM)	1 (≈ 2.52 µM)	2 (≈ 5.03 µM)	8 (≈ 20.1 µM)	2 (≈ 5.03 µM)	8 (≈ 20.1 µM)
O=C(O)c1cn(C2CC2)c2cc(-n3cc(CN4CCCCC4)nn3)c(F)cc2c1=O	16 (≈ 38.9 µM)	1 (≈ 2.43 µM)	2 (≈ 4.86 µM)	8 (≈ 19.4 µM)	4 (≈ 9.72 µM)	16 (≈ 38.9 µM)
O=C(O)c1cn(C2CC2)c2cc(-n3cc(CN4CCOCC4)nn3)c(F)cc2c1=O	16 (≈ 38.7 µM)	4 (≈ 9.68 µM)	16 (≈ 38.7 µM)	16 (≈ 38.7 µM)	8 (≈ 19.4 µM)	16 (≈ 38.7 µM)
O=C(O)c1cn(C2CC2)c2cc(-n3cc(CN4CCNCC4)nn3)c(F)cc2c1=O	32 (≈ 77.6 µM)	8 (≈ 19.4 µM)	8 (≈ 19.4 µM)	32 (≈ 77.6 µM)	16 (≈ 38.8 µM)	16 (≈ 38.8 µM)
CC(C)NCc1cn(-c2cc3c(cc2F)c(=O)c(C(=O)O)cn3C2CC2)nn1	16 (≈ 41.5 µM)	1 (≈ 2.59 µM)	4 (≈ 10.4 µM)	16 (≈ 41.5 µM)	16 (≈ 41.5 µM)	16 (≈ 41.5 µM)
O=C(O)c1cn(C2CC2)c2cc(-n3cc(CNC4CC4)nn3)c(F)cc2c1=O	16 (≈ 41.7 µM)	32 (≈ 83.5 µM)	32 (≈ 83.5 µM)	32 (≈ 83.5 µM)	16 (≈ 41.7 µM)	16 (≈ 41.7 µM)
O=C(O)c1cn(C2CC2)c2cc(-n3cc(CNC4CCCC4)nn3)c(F)cc2c1=O	16 (≈ 38.9 µM)	1 (≈ 2.43 µM)	4 (≈ 9.72 µM)	16 (≈ 38.9 µM)	16 (≈ 38.9 µM)	16 (≈ 38.9 µM)
O=C(O)c1cn(C2CC2)c2cc(-n3cc(CNC4CCCCC4)nn3)c(F)cc2c1=O	32 (≈ 75.2 µM)	1 (≈ 2.35 µM)	2 (≈ 4.7 µM)	8 (≈ 18.8 µM)	16 (≈ 37.6 µM)	32 (≈ 75.2 µM)
O=C(O)c1cn(C2CC2)c2cc(N3CCNCC3)c(F)cc2c1=O [CIPROFLOXACIN]	0.5 (≈ 1.51 µM)	0.25 (≈ 0.754 µM)	–	0.5 (≈ 1.51 µM)	0.5 (≈ 1.51 µM)	0.5 (≈ 1.51 µM)
CC(=O)NC[C@H]1CN(c2ccc(N3CCOCC3)c(F)c2)C(=O)O1 [LINEZOLID]	–	4 (≈ 11.9 µM)	> 32	> 32	–	–
